# Source: patent US20250098671A1, “CHITOSAN ENCAPSULATION OF OXYMATRINE AND TEA SAPONIN FOR USE IN PESTICIDAL ACTIVITY” (priority 2023, published 2025)
# Key:
# [1] = tested on: root-knot nematodes (Meloidogyne spp.); test: Nematocidal activity on hatched root-knot nematodes in Petri dish; conditions: 15 nematodes; for Nematocidal efficiency (%): up to 3 days
# Protocol: The tomato roots infected with root-knot nematodes were washed with running water and were then cut to a size of about 1 cm, after which 50 g of the cut roots were placed in a 500 ml round-bottom flask containing 200 ml of 0.5% sodium hypochloride (NaOCl), stopped with a rubber stopper, and shaken vigorously for 3 min to sterilize the roots and at the same time burst the egg bag. Thereafter, the solution was passed through a sieve in which 200 mesh was superimposed on 500 mesh, and washed with distilled water, so the eggs of the root-knot nematodes from which the NaOCl solution was removed were recovered.
# Next, the eggs of the root-knot nematodes thus recovered were surface-sterilized with 0.5% NaOCl for 10 min, washed thoroughly with sterile distilled water, placed in a phosphate buffer (1%) containing sterilized normal saline, and hatched in an incubator at 25° C.
# Thereafter, each mixed solution was diluted to 2000 ppm, 2 to 3 ml thereof was poured into a Petri dish, after which 15 hatched root-knot nematodes were placed in the Petri dish, and nematocidal activity was measured and the results thereof are shown in Table 1 below.
# The number of root-knot nematodes used for the experiment on the number of killed root-knot nematodes was 15 at each dilution factor.
# [2] = all the antioxidant assay systems; cited from earlier work
# tomato seedlings = test: Phytotoxicity of geraniol, drenching treatment of potted tomato seedlings; format: in vivo; conditions: for Phytotoxicity symptom / Extent of phytotoxicity (0-5): Tomato, 1 week after treatment; for Extent of phytotoxicity (0-5): 50 ml drench
# Text: Sterilized soil was uniformly mixed, 300 g thereof was then placed in each pot, and tomato seedlings not infected with root-knot nematodes were transplanted thereto.
# plant = test: Plant phytotoxicity noted in development assessments
# [3] = cited from earlier work
# black Sigatoka [4] = test: Black Sigatoka activity assessed in development of embodiments; conditions: in vivo
# mildew, and anthracnose = test: Fungicide activity of Geraniol oil; conditions: 500 to 4,000 ppm
# [5] = tested on: mosquitos and midge (Ae. aegypti, Culex species mosquitoes, Anopheles species mosquitoes); test: Mosquito and midge adult activity; format: in vivo; conditions: 500 to 8,000 ppm
# [6] = tested on: root-knot nematodes (Meloidogyne spp.); test: Nematocidal activity assessed in development of embodiments; format: in vivo
# Text: Other embodiments may include the use of other monoterpene alcohols in place of geraniol. In some embodiments, a plant extract selected from the group consisting of a oxymatrine, neem extract, an Ostericum koreanum extract, Quillaja saponaria Molina and a clove extract may be added.
# multiple insects = test: Insecticidal activity on multiple insects; format: in vivo; conditions: 500 to 6,000 ppm
# Black Sigatoka [7] = test: Field trials against black Sigatoka in bananas; format: in vivo, Mycosphaerella fijiensis; conditions: applied as tank mixes with tea tree oil
# Text: Fungicides are combined in mixtures mainly: to widen the spectrum of antifungal activity and to extend its duration; to exploit the synergistic interaction between the compounds, whereby the overall activity can be increased or the amounts used can be reduced without loss of activity; and to delay or reduce the emergence of resistant strains. […] Although in principle, combinations of synthetic antifungal compounds could be used to reduce the chemical load of any particular compound applied to crops, concerns about resistance development at lower doses have militated against their use as advised by the Fungicide Resistance Action Committee (FRAC).
# [8] = 2000 ppm dilution, mixed 1:1 with emulsifier PLE9
compound,measurement,setting,value
"C/C=C(\C)C(=O)O[C@H]1C[C@@H](OC(C)=O)[C@@]2(C(=O)OC)CO[C@H]3[C@@H](O)[C@@](C)([C@]45O[C@@]4(C)[C@H]4C[C@@H]5O[C@@H]5OC=C[C@@]54O)[C@H]4[C@]1(CO[C@]4(O)C(=O)OC)[C@@H]32 [Azadirachtin, azadirachtin]","number of killed root-knot nematodes, 1 day",[1]; [8],7
same,"number of killed root-knot nematodes, 2 days",[1]; [8],8
same,"number of killed root-knot nematodes, 3 days",[1]; [8],10
same,Nematocidal efficiency (%),[1]; 2000 ppm dilution,66.7%
"O=c1c(O)c(-c2ccccc2)oc2cc(O)cc(O)c12 [Galangin, galangin]",antioxidant activity,[2],comparable activity with that of AEP and EEP
"CC(C)=CCC/C(C)=C/CO [Geraniol, 3,7-dimethyl-2,6-octadien-1-ol]",phytotoxicity symptoms in tomato seedlings,tomato seedlings; 4000 ppm or more,all tomato seedlings collapsed and withered
same,Phytotoxicity symptom,tomato seedlings; Geraniol 100 ppm,No
same,Extent of phytotoxicity (0-5),tomato seedlings; Geraniol 100 ppm,0
same,Phytotoxicity symptom,tomato seedlings; Geraniol 200 ppm,No
same,Extent of phytotoxicity (0-5),tomato seedlings; Geraniol 200 ppm,0
same,Phytotoxicity symptom,tomato seedlings; Geraniol 330 ppm,No
same,Extent of phytotoxicity (0-5),tomato seedlings; Geraniol 330 ppm,0
same,Phytotoxicity symptom,tomato seedlings; Geraniol 500 ppm,No
same,Extent of phytotoxicity (0-5),tomato seedlings; Geraniol 500 ppm,0
same,Phytotoxicity symptom,"tomato seedlings; Geraniol 1,000 ppm",No
same,Extent of phytotoxicity (0-5),"tomato seedlings; Geraniol 1,000 ppm",0
same,Phytotoxicity symptom,"tomato seedlings; Geraniol 2,000 ppm",No
same,Extent of phytotoxicity (0-5),"tomato seedlings; Geraniol 2,000 ppm",0
same,Phytotoxicity symptom,"tomato seedlings; Geraniol 3,000 ppm",No
same,Extent of phytotoxicity (0-5),"tomato seedlings; Geraniol 3,000 ppm",0
same,Phytotoxicity symptom,"tomato seedlings; Geraniol 4,000 ppm",Withered
same,Extent of phytotoxicity (0-5),"tomato seedlings; Geraniol 4,000 ppm",5
same,Phytotoxicity symptom,"tomato seedlings; Geraniol 5,000 ppm",Withered
same,Extent of phytotoxicity (0-5),"tomato seedlings; Geraniol 5,000 ppm",5
same,Phytotoxicity symptom,"tomato seedlings; Geraniol 10,000 ppm",Withered
same,Extent of phytotoxicity (0-5),"tomato seedlings; Geraniol 10,000 ppm",5
same,Phytotoxicity symptom,"tomato seedlings; Geraniol 20,000 ppm",Withered
same,Extent of phytotoxicity (0-5),"tomato seedlings; Geraniol 20,000 ppm",5
same,phytotoxicity symptoms in tomato seedlings,"tomato seedlings; concentration range of 100 ppm to 3,000 ppm",no particular phytotoxicity symptoms
same,plant phytotoxicity,"plant; 500 to 4,000 ppm",without plant phytotoxicity
same,plant phytotoxicity or water toxicology,"plant; 500 to 8,000 ppm",without plant phytotoxicity or water toxicology
same,plant phytotoxicity,"plant; 4,500 ppm or more",plant phytotoxicity was shown to occur
same,solubility in organic solvents,[3]; most common organic solvents,soluble in most common organic solvents
same,solubility in water,[3]; water,insoluble in water
same,control of the black sigatoka fungus,black Sigatoka [4],also effective against the fungus
same,fungicidal control,"mildew, and anthracnose",superior fungicidal control
same,mosquito and midge control,[5],superior mosquito and midge control
same,nematocidal control,"[6]; 500 to 4,000 ppm",superior nematocidal control
same,nematocidal activity,[6]; utilized alone,superior nematocidal activity
same,"number of killed root-knot nematodes, 1 day",[1]; [8],15ª
same,"number of killed root-knot nematodes, 1 day","[1]; Geraniol 2,000 ppm",15
"O=C1CCC[C@@H]2[C@H]3CCC[N+]4([O-])CCC[C@@H](CN12)[C@@H]34 (stereo partly shown) [Oxymatrine, oxymatrine]",plant phytotoxicity,"plant; 500 to 6,000 ppm",without plant phytotoxicity
same,"number of killed root-knot nematodes, 1 day",[1]; [8],7
same,"number of killed root-knot nematodes, 2 days",[1]; [8],9
same,"number of killed root-knot nematodes, 3 days",[1]; [8],10
same,insecticidal control,multiple insects,superior insecticidal control
CC1COC(Cn2cncn2)(c2ccc(Oc3ccc(Cl)cc3)cc2Cl)O1 (stereo not shown) [difenoconazole],control of Black Sigatoka,Black Sigatoka [7],effectively controlled Black Sigatoka
CON=C(C(=O)OC)c1ccccc1CON=C(C)c1cccc(C(F)(F)F)c1 [trifloxystrobin],control of Black Sigatoka,Black Sigatoka [7],effectively controlled Black Sigatoka
pyrethrin,"number of killed root-knot nematodes, 1 day",[1]; [8],5
same,"number of killed root-knot nematodes, 2 days",[1]; [8],6
same,"number of killed root-knot nematodes, 3 days",[1]; [8],11
same,Nematocidal efficiency (%),[1]; 2000 ppm dilution,73.3%
